Key:
Assay type in all cases: cell-based
[1] = tested on: Sporobolomyces salmonicolor JMRC:ST:35974; assay: agar diffusion inhibition zone test; settings: 1o, 2o 1,000 µg/ml in DMSO; amphotericin B 10 µg/ml; solvent DMSO 20p
[2] = tested on: Mycobacterium vaccae JMRC:STI:10670; assay: agar diffusion inhibition zone test; settings: 1o, 2o 1,000 µg/ml in DMSO; ciprofloxacin 5 µg/ml; solvent DMSO 13P
[3] = tested on: Pseudomonas aeruginosa JMRC:ST:337721; assay: agar diffusion inhibition zone test; settings: 1o, ciprofloxacin 5 µg/ml, solvent DMSO 16P
[4] = tested on: Penicillium notatum JMRC:STI:50164; assay: agar diffusion inhibition zone test; settings: 1o, 2o 1,000 µg/ml in DMSO, amphotericin B 10 µg/ml, solvent DMSO 13p
[5] = tested on: Escherichia coli JMRC:ST:33699; assay: agar diffusion inhibition zone test; settings: 1o, 2o 1,000 µg/ml in DMSO; ciprofloxacin 5 µg/ml; solvent DMSO 13P
[6] = tested on: Pseudomonas aeruginosa JMRC:ST:33772; assay: agar diffusion inhibition zone test; settings: 1o, ciprofloxacin 5 µg/ml, solvent DMSO 13P
[7] = tested on: Staphylococcus aureus JMRC:ST:33793 (multi-resistant); assay: agar diffusion inhibition zone test; settings: 1o, ciprofloxacin 5 µg/ml, solvent DMSO 12P
[8] = tested on: Candida albicans JMRC:ST:35864; assay: spore inhibition test; settings: 48 h
Method: (§1) The following test organisms were used for their susceptibility to compounds 1o and 2o: Alternaria alternata JMRC:SF:09317, Arthroderma benhamiae JMRC:ST:35888, Aspergillus fumigatus JMRC:Afum:00073=ATCC 46645, Aspergillus terreus JMRC:SF:06307, Candida albicans JMRC:ST:35864, Lichtheimia corymbifera JMRC:SF:09682, Penicillium chrysogenum JMRC:SF:10137, Rhizopus arrhizus (syn. R. oryzae) JMRC:SF:05857=ATCC 56536, CBS 112.07.
(§2) Fungi were grown on 3% malt extract solidified medium for 1 to 2 weeks at room temperature. Then the plates were washed with 7 ml sterile distilled water, and the spore suspension was filtered through 4 layers of sterile Miracloth (Kalbiochem, USA) to remove the hyphae. The concentration of the spore suspension was set to 2 × 10^4 conidia ml^−1 for the in vitro assays.
(§3) The spore inhibition assay took place in 96-well microplates (flat base). 50 μl of the prepared spore suspension was seeded and then mixed with 50 μl of the respective inhibitor substance. Tests were started with end concentrations of 1 mg ml^−1 and were then reduced in a minimum of 10 halving steps. Thus a 2 mg ml^−1 stock solution diluted in half ten times with solvent (distilled water, 2% DMSO in distilled water, or 2% DMF in distilled water) and each 50 μl was transferred to 50 μl spore suspension. For each test substance, 12 holes on the microtiter plate were filled. After 24 h incubation (25 °C), the germination of the spores was macroscopically and microscopically examined directly in the microtiter plate via measurement of the optical density and light microscopy using an inverse stereomicroscope with subsequent photodocumentation, respectively. If necessary, the plates were further incubated for another 24 or 48 h, depending on the extent of fungal germination.

[9] = tested on: Aspergillus terreus JMRC:SF:06307; assay: spore inhibition test; settings: 48 h; start concentration 1 mg/ml (1o, 2o), 100 µg/ml (Amphotericin B)
Method: as §1, §2, §3

[10] = tested on: Aspergillus fumigatus JMRC:Afum:00073; assay: spore inhibition test; settings: 48 h; start concentration 1 mg/ml (1o, 2o), 100 µg/ml (Amphotericin B)
Method: as §1, §2, §3

[11] = tested on: Rhizopus arrhizus (syn. R. oryzae) JMRC:SF:05857; assay: spore inhibition test; settings: 48 h; start concentration 1 mg/ml (1o, 2o), 100 µg/ml (Amphotericin B)
Method: as §1, §2, §3

[12] = start concentration 1 mg/ml (1o, 2o), 100 µg/ml (Amphotericin B)

Compound	inhibition zone diameter, Sporobolo. salmonicolor (H4) [1]	inhibition zone diameter, Mycobac. vaccae (M4) [2]	zone of inhibition ([3]; Pseudomonas aeruginosa, read-out: inhibition zone diameter, Pseudomonas aeruginosa JMRC:ST:337721 (B9))	zone of inhibition at 1000 µg/mL ([4]; Penicillium chrysogenum, read-out: inhibition zone diameter, Penicillium notatum (P1))	inhibition zone diameter, Escherichia coli (B4) [5]	zone of inhibition ([6]; Pseudomonas aeruginosa, read-out: inhibition zone diameter, Pseudomonas aeruginosa JMRC:ST:33772 (B7))	zone of inhibition ([7]; Staphylococcus aureus, MRSA, read-out: inhibition zone diameter, MRSA Staph. aureus (R9))	antifungal profile, 1st value = microscopic visualization-based observation, Candida albicans [8, 12]	antifungal profile, 2nd value = optical density-based observation, Candida albicans [8, 12]	antifungal profile, 1st value = microscopic visualization-based observation, Aspergillus terreus [9]	antifungal profile, 2nd value = optical density-based observation, Aspergillus terreus [9]	antifungal profile, 1st value = microscopic visualization-based observation, Aspergillus fumigatus [10]	antifungal profile, 2nd value = optical density-based observation, Aspergillus fumigatus [10]	antifungal profile, 1st value = microscopic visualization-based observation, Rhizopus arrhizus [11]	antifungal profile, 2nd value = optical density-based observation, Rhizopus arrhizus [11]	inhibition zone diameter, Pseudomonas aeruginosa JMRC:ST:337721 (B9) ([3]; 2o 1,000 µg/ml in DMSO)	inhibition zone diameter, Penicillium notatum (P1) [4]	inhibition zone diameter, Pseudomonas aeruginosa JMRC:ST:33772 (B7) ([6]; 2o 1,000 µg/ml in DMSO)	inhibition zone diameter, MRSA Staph. aureus (R9) ([7]; 2o 1,000 µg/ml in DMSO)	antifungal profile, 1st value = microscopic visualization-based observation, Candida albicans ([8]; start concentration 1 mg/ml, given in mg)
COc1ccc2c(c1)CCC1C2CC[C@@]2(C)C1CC[C@@H]2NCc1cc2ccccc2cc1O (stereo partly drawn) [2o]	24p	17p	0 mm	0 mm	16P	0 mm	0 mm	500	250	250	4	250	125	500	500					
COc1ccc2c(c1)CCC1C2CC[C@@]2(C)C1CC[C@H]2NCc1cc2ccccc2cc1O (stereo partly drawn) [1o]	22p	18p			15P				500	250	125	250	250	500	500	0 mm	0 mm	0 mm	0 mm	1 mg

Reference: PMC5321741, “Arylmethylamino steroids as antiparasitic agents” (Nature Communications, 2017)
